For series [1] the following is noted: prior-art method; cited from earlier work.
The nature of series [2]: solubility in an aqueous medium at pH 1. Format: physicochemical.

Converted amounts (≈) assume the structure as drawn. Where two headings read alike, the source gives them in different places.

As for `Cn1c(=NN)sc2ccccc21` [MBTH, 3-methylbenzothiazolonehydrazone], the stability result in series [1] is “low stability”. In series [2] (read-out: solubility in an aqueous medium), the solubility turned out to be 48 mg/mL (≈ 268 mM). For the compound `Cn1c(=NN)sc2cc(S(=O)(=O)O)ccc21` [MBTH sulfonate, 3-methyl-2-(sulfonyl)-benzothiazolonehydrazone], the solubility in series [2] (read-out: solubility) is 6 mg/mL.

The values above are taken from US4101381A, “Method and reagent for the determination of substances forming hydrogen peroxide” (Boehringer Mannheim GmbH, priority 1976, dated 1978).
